Starred links: 1 amine or outer side, 2 acyl side, 3 side chain; linkers in the order of their positions; H or OH if unused. Positions of bridges follow the written chain, without caps; N, C: chain ends. Non-standard residues stand in square brackets, D forms with d. Residues, ends and D or L forms follow the SMILES beside them. Groups on a side chain read outwards from the residue. *: point of attachment. Ala(piperidin-4-yl) = O=C([C@H](CC1CCN([*:3])CC1)N[*:1])[*:2]; DOTA = O=C(O)CN1CCN(CC(=O)O)CCN(CC(=O)*)CCN(CC(=O)O)CC1; Phe(4-NHCONH2) = NC(=O)Nc1ccc(C[C@H](N)C(=O)O)cc1; Trp(5-F) = N[C@@H](Cc1c[nH]c2ccc(F)cc12)C(=O)O; X13 = NC(=O)N1CCC(C[C@H](N[*:1])C(=O)[*:2])CC1; Trp(7-aza) = N[C@@H](Cc1c[nH]c2ncccc12)C(=O)O; X1 = C[C@@H](c1ccccc1)[C@H](N[*:1])C(=O)[*:2]; γGlu = O=C(O)[C@H](CCC(=O)[*:2])N[*:1]; 1Nal = N[C@@H](Cc1cccc2ccccc12)C(=O)O; Ala(4-THP) = N[C@@H](CC1CCOCC1)C(=O)O; Ile(3-Me) = CCC(C)(C)[C@H](N)C(=O)O; Val(3-OH) = CC(C)(O)[C@H](N)C(=O)O; NMeF = CN[C@@H](Cc1ccccc1)C(=O)O; tBuAla = CC(C)(C)C[C@H](N)C(=O)O; 4Pal = N[C@@H](Cc1ccncc1)C(=O)O; pGlu = O=C1CC[C@@H](C(=O)O)N1; Chg = N[C@H](C(=O)O)C1CCCCC1; PEG4 = NCCOCCOCCOCCOCCC(=O)O; Tle = CC(C)(C)[C@H](N)C(=O)O; hLeu = CC(C)CC[C@H](N)C(=O)O; Nle = CCCC[C@H](N)C(=O)O; CH2 = C([*:1])[*:2]
Biological target: T1, human 4lg B7-H3 (Homo sapiens, UniProt Q5ZPR3)
T1 sequence (Q5ZPR3 29-534): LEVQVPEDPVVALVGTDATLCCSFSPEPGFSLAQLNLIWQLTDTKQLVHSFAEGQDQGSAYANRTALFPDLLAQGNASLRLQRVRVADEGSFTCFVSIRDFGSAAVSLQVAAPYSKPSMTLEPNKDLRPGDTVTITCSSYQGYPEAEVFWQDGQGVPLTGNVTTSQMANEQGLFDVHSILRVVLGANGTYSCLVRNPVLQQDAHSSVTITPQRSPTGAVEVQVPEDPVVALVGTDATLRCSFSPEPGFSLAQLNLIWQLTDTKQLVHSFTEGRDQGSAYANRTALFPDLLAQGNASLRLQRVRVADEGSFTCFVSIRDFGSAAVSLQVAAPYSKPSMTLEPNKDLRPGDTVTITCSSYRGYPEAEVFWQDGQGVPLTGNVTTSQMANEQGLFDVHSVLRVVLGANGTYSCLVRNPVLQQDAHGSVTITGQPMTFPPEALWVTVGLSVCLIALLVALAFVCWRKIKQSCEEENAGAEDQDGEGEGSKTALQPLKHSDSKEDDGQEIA
Assay: Affinity determination by surface plasmon resonance (SPR) to 4Ig B7-H3
Conditions: 4Ig B7-H3

[1] = SPR KD—37° C., 37° C. flow cell temperature
[2] = SPR KD—25° C., 25° C. flow cell temperature

Compound | Kd [1] [nM] | Kd [2] [nM]
CC(=O)N[C@@H](CCC(C)C)C(=O)N[C@@H](Cc1ccc(O)cc1)C(=O)N[C@H]1CSSC[C@@H](C(=O)N[C@@H](Cc2c[nH]c3ccc(F)cc23)C(=O)N[C@@H](Cc2ccccc2)C(=O)N[C@H](C(=O)N[C@H](CO)C(=O)O)C(C)(C)O)NC(=O)[C@H](Cc2ccc(O)cc2)NC(=O)[C@H](C(C)C)NC(=O)[C@H](CC(=O)O)NC(=O)[C@H](CC2CCN(C(=O)CCOCCOCCOCCOCCNC(=O)CN3CCN(CC(=O)O)CCN(CC(=O)O)CCN(CC(=O)O)CC3)CC2)NC(=O)[C@H](CC2CCNCC2)NC(=O)CNC(=O)[C@H](C(C)(C)C)NC1=O [compound 483, Ac-hLeu-Y-C-Tbg-G-PipAla-Pip(PEG4-DOTA)Ala-D-V-Y-C-5FW-F-hydroxyVal-dSer-COOH] (Ac-[hLeu]YC[Tle]G[Ala(piperidin-4-yl)][Ala(piperidin-4-yl)]([PEG4-DOTA])DVYC[Trp(5-F)]F[Val(3-OH)][dS]-OH; disulfide 3-11) | < 1 | 
CC(C)CC[C@H](NC(=O)CC[C@H](NC(=O)CN1CCN(CC(=O)O)CCN(CC(=O)O)CCN(CC(=O)O)CC1)C(=O)O)C(=O)N[C@@H](Cc1c[nH]c2ncccc12)C(=O)N[C@H]1CSSC[C@@H](C(=O)N[C@@H](Cc2cccc3ccccc23)C(=O)N[C@@H](Cc2ccccc2)C(=O)N2CCC[C@H]2C(N)=O)NC(=O)[C@H](Cc2ccc(O)cc2)NC(=O)[C@H](C(C)C)NC(=O)[C@H](CC(=O)O)NC(=O)[C@H](CC2CCOCC2)NC(=O)[C@H](CC2CCNCC2)NC(=O)CNC(=O)[C@H](C(C)(C)C)NC1=O [compound 284, DOTA-gE-hLeu-7AzaW-C-Tbg-G-PipAla-ThpA-D-V-Y-C-1Nal-F-Pro-CONH2] ({DOTA-γGlu}-[hLeu][Trp(7-aza)]C[Tle]G[Ala(piperidin-4-yl)][Ala(4-THP)]DVYC[1Nal]FP-NH2; disulfide 3-11) |  | 10 to 100
CCC(C)(C)[C@@H]1NC(=O)[C@@H](NC(=O)[C@H](Cc2ccc(O)cc2)NC(=O)[C@H](CCC(C)C)NC(C)=O)CSSC[C@@H](C(=O)N[C@@H](Cc2c[nH]c3ccc(F)cc23)C(=O)N[C@@H](Cc2ccccc2)C(=O)N[C@H](C(=O)N[C@H](CCCCNC(=O)CN2CCN(CC(=O)O)CCN(CC(=O)O)CCN(CC(=O)O)CC2)C(=O)O)C(C)(C)O)NC(=O)[C@H](Cc2ccc(O)cc2)NC(=O)[C@H](C(C)C)NC(=O)[C@H](CC(=O)O)NC(=O)[C@H](CC2CCOCC2)NC(=O)[C@H](CC2CCNCC2)NC(=O)CNC1=O [compound 432, Ac-hLeu-Y-C-betaMelle-G-PipAla-ThpA-D-V-Y-C-5FW-F-hydroxyVal-dLys(DOTA)-COOH] (Ac-[hLeu]YC[Ile(3-Me)]G[Ala(piperidin-4-yl)][Ala(4-THP)]DVYC[Trp(5-F)]F[Val(3-OH)][dK](DOTA)-OH; disulfide 3-11) | < 1 | 
CCCC[C@H](NC(C)=O)C(=O)N[C@@H](Cc1ccc(O)cc1)C(=O)N[C@H]1CSSC[C@@H](C(=O)N[C@@H](Cc2c[nH]c3ccccc23)C(=O)N[C@@H](Cc2ccccc2)C(N)=O)NC(=O)[C@H](Cc2ccc(O)cc2)NC(=O)[C@H](C(C)C)NC(=O)[C@H](CC(=O)O)NC(=O)[C@H](Cc2ccc(O)cc2)NC(=O)[C@H](CCCCN)NC(=O)CNC(=O)[C@H](C(C)C)NC1=O [Cpd #7, Ac-Nle-Y-C-V-G-K-Y-D-V-Y-C-W-F-CONH2] (Ac-[Nle]YCVGKYDVYCWF-NH2; disulfide 3-11) | 10 to 100 | 
CC(=O)N[C@@H](CCC(C)C)C(=O)N[C@@H](Cc1ccc(O)cc1)C(=O)N[C@H]1CSCSC[C@@H](C(=O)N[C@@H](Cc2cccc3ccccc23)C(=O)N[C@@H](Cc2ccccc2)C(=O)N2CCC[C@H]2C(N)=O)NC(=O)[C@H](Cc2ccc(O)cc2)NC(=O)[C@H](C(C)C)NC(=O)[C@H](CC(=O)O)NC(=O)[C@H](Cc2ccncc2)NC(=O)[C@H](CCCCNC(=O)CN2CCN(CC(=O)O)CCN(CC(=O)O)CCN(CC(=O)O)CC2)NC(=O)CNC(=O)[C@H](C(C)(C)C)NC1=O [compound 330, Ac-hLeu-Y-C(CH2)-Tbg-G-Lys(DOTA)-4PyA-D-V-Y-C-1Nal-F-Pro-CONH2] (Ac-[hLeu]YC[Tle]GK(DOTA)[4Pal]DVYC[1Nal]FP-NH2; linker 3-11 via CH2) |  | 100 to 300
CC(=O)N[C@@H](CCC(C)C)C(=O)N[C@@H](Cc1ccc(O)cc1)C(=O)N[C@H]1CSSC[C@@H](C(=O)N[C@@H](Cc2c[nH]c3ccc(F)cc23)C(=O)N[C@@H](Cc2ccccc2)C(=O)N[C@H](C(=O)N[C@H](CCCCNC(=O)CN2CCN(CC(=O)O)CCN(CC(=O)O)CCN(CC(=O)O)CC2)C(N)=O)[C@@H](C)O)NC(=O)[C@H](Cc2ccc(O)cc2)NC(=O)[C@H](C(C)C)NC(=O)[C@H](CC(=O)O)NC(=O)[C@H](Cc2ccc(O)cc2)NC(=O)[C@H](CCCCN)NC(=O)CNC(=O)[C@H](CC(C)(C)C)NC1=O [compound 174, Ac-hLeu-Y-C-tBuAla-G-K-Y-D-V-Y-C-5FW-F-Thr-dLys(DOTA)-CONH2] (Ac-[hLeu]YC[tBuAla]GKYDVYC[Trp(5-F)]FT[dK](DOTA)-NH2; disulfide 3-11) |  | 10 to 100
CC(=O)N[C@@H](CCC(C)C)C(=O)N[C@@H](Cc1ccc(O)cc1)C(=O)N[C@H]1CSSC[C@@H](C(=O)N[C@@H](Cc2c[nH]c3ccc(F)cc23)C(=O)N[C@H](C(=O)N[C@H](C(=O)N[C@H](C)C(=O)O)C(C)(C)O)[C@@H](C)c2ccccc2)NC(=O)[C@H](Cc2ccc(O)cc2)NC(=O)[C@H](C(C)C)NC(=O)[C@H](CC(=O)O)NC(=O)[C@H](CC2CCN(C(=O)CCOCCOCCOCCOCCNC(=O)CN3CCN(CC(=O)O)CCN(CC(=O)O)CCN(CC(=O)O)CC3)CC2)NC(=O)[C@H](CC2CCN(C(N)=O)CC2)NC(=O)CNC(=O)[C@H](C(C)(C)C)NC1=O [compound 514, Ac-hLeu-Y-C-Tbg-G-Pip(CONH2)Ala-Pip(PEG4-DOTA)Ala-D-V-Y-C-5FW-[(2S, 3S)beta-Me-Phe]-hydroxyVal-dAla-COOH] (Ac-[hLeu]YC[Tle]G[X13][Ala(piperidin-4-yl)]([PEG4-DOTA])DVYC[Trp(5-F)][X1][Val(3-OH)][dA]-OH; disulfide 3-11) | < 1 | 
CC(=O)N[C@@H](CCC(C)C)C(=O)N[C@@H](Cc1ccc(O)cc1)C(=O)N[C@H]1CSSC[C@@H](C(=O)N[C@@H](Cc2c[nH]c3ccc(F)cc23)C(=O)N(C)[C@@H](Cc2ccccc2)C(=O)N[C@H](C(=O)N[C@H](CCCCNC(=O)CN2CCN(CC(=O)O)CCN(CC(=O)O)CCN(CC(=O)O)CC2)C(N)=O)[C@@H](C)O)NC(=O)[C@H](Cc2ccc(O)cc2)NC(=O)[C@H](C(C)C)NC(=O)[C@H](CC(=O)O)NC(=O)[C@H](Cc2ccc(O)cc2)NC(=O)[C@H](CCCCN)NC(=O)CNC(=O)[C@H](C(C)C)NC1=O [compound 205, Ac-hLeu-Y-C-V-G-K-Y-D-V-Y-C-5FW-NMePhe-Thr-dLys(DOTA)-CONH2] (Ac-[hLeu]YCVGKYDVYC[Trp(5-F)][NMeF]T[dK](DOTA)-NH2; disulfide 3-11) |  | 1 to 10
CC(=O)N[C@@H](CCC(C)C)C(=O)N[C@@H](Cc1ccc(O)cc1)C(=O)N[C@H]1CSSC[C@@H](C(=O)N[C@@H](Cc2c[nH]c3ccccc23)C(=O)N[C@@H](Cc2ccccc2)C(=O)N[C@H](C(=O)N[C@H](CCCCNC(=O)CN2CCN(CC(=O)O)CCN(CC(=O)O)CCN(CC(=O)O)CC2)C(N)=O)[C@@H](C)O)NC(=O)[C@H](Cc2ccc(O)cc2)NC(=O)[C@H](C2CCCCC2)NC(=O)[C@H](CC(=O)O)NC(=O)[C@H](Cc2ccc(O)cc2)NC(=O)[C@H](CCCCN)NC(=O)CNC(=O)[C@H](C(C)(C)C)NC1=O [compound 216, Ac-hLeu-Y-C-Tbg-G-K-Y-D-ChG-Y-C-W-F-Thr-dLys(DOTA)-CONH2] (Ac-[hLeu]YC[Tle]GKYD[Chg]YCWFT[dK](DOTA)-NH2; disulfide 3-11) |  | < 1
CCCC[C@H](NC(C)=O)C(=O)N[C@@H](Cc1ccc(O)cc1)C(=O)N[C@H]1CSSC[C@@H](C(=O)N[C@@H](Cc2c[nH]c3ccccc23)C(=O)N[C@@H](Cc2ccccc2)C(=O)N[C@H](C(=O)N[C@H](CCCCNC(=O)CN2CCN(CC(=O)O)CCN(CC(=O)O)CCN(CC(=O)O)CC2)C(N)=O)[C@@H](C)O)NC(=O)[C@H](Cc2ccc(O)cc2)NC(=O)[C@H](C2CCCCC2)NC(=O)[C@H](CC(=O)O)NC(=O)[C@H](Cc2ccc(O)cc2)NC(=O)[C@H](CCCCN)NC(=O)CNC(=O)[C@H](C(C)C)NC1=O [compound 55, Ac-Nle-Y-C-V-G-K-Y-D-ChG-Y-C-W-F-Thr-dLys(DOTA)-CONH2] (Ac-[Nle]YCVGKYD[Chg]YCWFT[dK](DOTA)-NH2; disulfide 3-11) |  | 1 to 10
CC(C)CC[C@H](NC(=O)[C@@H]1CCC(=O)N1)C(=O)N[C@@H](Cc1ccc(O)cc1)C(=O)N[C@H]1CSSC[C@@H](C(=O)N[C@@H](Cc2c[nH]c3ccc(F)cc23)C(=O)N[C@H](C(=O)N[C@H](C(=O)N[C@H](CCCCNC(=O)CN2CCN(CC(=O)O)CCN(CC(=O)O)CCN(CC(=O)O)CC2)C(=O)O)C(C)(C)O)[C@@H](C)c2ccccc2)NC(=O)[C@H](Cc2ccc(NC(N)=O)cc2)NC(=O)[C@H](C(C)C)NC(=O)[C@H](CC(=O)O)NC(=O)[C@H](CC2CCOCC2)NC(=O)[C@H](CC2CCNCC2)NC(=O)CNC(=O)[C@H](C(C)(C)C)NC1=O [compound 504, Pyroglutamate-hLeu-Y-C-Tbg-G-PipAla-ThpA-D-V-Aph(Cbm)-C-5FW-[(2S, 3S)beta-Me-Phe]-hydroxyVal-dLys(DOTA)-COOH] ([pGlu][hLeu]YC[Tle]G[Ala(piperidin-4-yl)][Ala(4-THP)]DV[Phe(4-NHCONH2)]C[Trp(5-F)][X1][Val(3-OH)][dK](DOTA)-OH; disulfide 4-12) | < 1 | 

Source: patent US20250296959A1, “B7-H3 TARGETING PEPTIDES AND CONSTRUCTS THEREOF” (Mariana Oncology Inc., priority 2024, published 2025)
